Patent US10570077B2, “Substituted (4'-hydroxyphenyl)cyclohexane compounds and uses thereof as selective agonists of the estrogen receptor beta isoform” (Marquette University, priority 2013, dated 2020)
Several values for one entry are separate records, joined by “and”; a condition that tells them apart may be missing. Equal entries are not always repeated. Where two headings read alike, the source gives them in different places.

Experiments:
[1] = target: T1, ERα (Homo sapiens (Human), UniProt P03372); assay: Cell-based ERα luminescence (luciferase reporter) agonist assay
Description: (§1) ERα and ERβ assay kits for cell-based assays (Indigo Biosciences) allowed for investigation into the functional activity (i.e. agonist and/or antagonist) of the ligands identified to bind based on the initial fluorescence polarization displacement assay. Briefly, the cells contained a luciferase reporter gene that was functionally linked to either the ERα or ERβ-responsive promoter. By quantifying the luciferase expression via luminescence, the change in ER activity could be quantified. […] For the agonist assay, the cells were prepared by warming to 37° C., plated, then the chemicals added. […] The cells were then plated, and the chemicals added. All plates were incubated in a cell culture incubator at 37° C. and 5% CO2 for 22 h. Each assay was performed in duplicate. Luminescence was characterized after removal of the incubating media and introduction of the Detection Substrate using a Molecular Devices SpectraMax M5 microplate reader. Data was fitted using GraphPad Prism and fit to the dose-response (four parameter) equation as follows.

[2] = target: T2, ERβ (Homo sapiens (Human), UniProt Q92731); assay: Cell-based ERβ luminescence (luciferase reporter) agonist assay
Description: as §1

[3] = target: T2, ERβ; assay: Cell-based ERβ luminescence antagonist assay (+E2)
Description: as §1

[4] = target: T2, ERβ; assay: TR-FRET ERβ binding assay; details: TR-FRET tracer displacement
Description: The binding activity of substituted (4′-hydroxyphenyl)cycloalkane compounds was tested using a TR-FRET ERβ binding assay as illustrated in FIG. 12. […] When the tracer used in the assay is bound, then the ratio is high. When the tracer is displaced, the ratio is low. The following compounds were tested.

[5] = target: T1, ERα; assay: Fluorescence polarization displacement assay (FITC-estradiol tracer); type: binding; details: for IC50: read-out: IC50 (ERα affinity, fluorescence polarization displacement assay); for affinity for ERα (qualitative): at concentrations as high as 1 μM
Description: ([Tr]) was 10 nM. Sample volume was 150 μL. For each experiment the polarization was calibrated with a sample of FITC set at 20 mP. All proper blanks were used, including water for the FITC samples and blank samples containing only 30 nM ERα protein for the remaining data points.

[6] = target: T1, ERα; assay: Cell-based ERα luminescence antagonist assay (+E2)
Description: ERα and ERβ assay kits for cell-based assays (Indigo Biosciences) allowed for investigation into the functional activity (i.e. agonist and/or antagonist) of the ligands identified to bind based on the initial fluorescence polarization displacement assay. Briefly, the cells contained a luciferase reporter gene that was functionally linked to either the ERα or ERβ-responsive promoter. By quantifying the luciferase expression via luminescence, the change in ER activity could be quantified. 1-2 mM stocks of the ligands were prepared in d6-DMSO and diluted to final concentrations ranging from 3.2 nM to 2 μM, using the Compound Screening Medium provided in the kit. For the agonist assay, the cells were prepared by warming to 37° C., plated, then the chemicals added. […] The cells were then plated, and the chemicals added. All plates were incubated in a cell culture incubator at 37° C. and 5% CO2 for 22 h. Each assay was performed in duplicate. Luminescence was characterized after removal of the incubating media and introduction of the Detection Substrate using a Molecular Devices SpectraMax M5 microplate reader. Data was fitted using GraphPad Prism and fit to the dose-response (four parameter) equation as follows.

[7] = fluorescence polarization displacement
[8] = normalized, read-out: ERα Normalized Agonist
[9] = 160 pM E2 added, read-out: ERβ antagonist IC50
[10] = normalized, read-out: ERβ Agonist normalized

T2 sequence (Q92731 whole entry): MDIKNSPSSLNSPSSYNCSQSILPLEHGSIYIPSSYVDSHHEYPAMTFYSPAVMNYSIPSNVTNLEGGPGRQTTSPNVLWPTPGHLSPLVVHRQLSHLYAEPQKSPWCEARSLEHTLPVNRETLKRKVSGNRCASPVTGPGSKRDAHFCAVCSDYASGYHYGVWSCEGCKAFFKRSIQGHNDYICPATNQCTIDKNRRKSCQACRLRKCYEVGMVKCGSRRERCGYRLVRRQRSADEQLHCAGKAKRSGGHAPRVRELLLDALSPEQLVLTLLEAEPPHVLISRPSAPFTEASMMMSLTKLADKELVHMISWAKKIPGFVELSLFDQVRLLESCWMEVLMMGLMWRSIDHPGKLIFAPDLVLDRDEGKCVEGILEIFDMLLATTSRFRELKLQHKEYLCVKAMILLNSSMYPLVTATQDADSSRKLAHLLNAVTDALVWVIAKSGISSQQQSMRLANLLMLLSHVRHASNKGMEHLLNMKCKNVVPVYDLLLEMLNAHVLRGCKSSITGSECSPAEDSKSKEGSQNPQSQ
T1 sequence (P03372 whole entry): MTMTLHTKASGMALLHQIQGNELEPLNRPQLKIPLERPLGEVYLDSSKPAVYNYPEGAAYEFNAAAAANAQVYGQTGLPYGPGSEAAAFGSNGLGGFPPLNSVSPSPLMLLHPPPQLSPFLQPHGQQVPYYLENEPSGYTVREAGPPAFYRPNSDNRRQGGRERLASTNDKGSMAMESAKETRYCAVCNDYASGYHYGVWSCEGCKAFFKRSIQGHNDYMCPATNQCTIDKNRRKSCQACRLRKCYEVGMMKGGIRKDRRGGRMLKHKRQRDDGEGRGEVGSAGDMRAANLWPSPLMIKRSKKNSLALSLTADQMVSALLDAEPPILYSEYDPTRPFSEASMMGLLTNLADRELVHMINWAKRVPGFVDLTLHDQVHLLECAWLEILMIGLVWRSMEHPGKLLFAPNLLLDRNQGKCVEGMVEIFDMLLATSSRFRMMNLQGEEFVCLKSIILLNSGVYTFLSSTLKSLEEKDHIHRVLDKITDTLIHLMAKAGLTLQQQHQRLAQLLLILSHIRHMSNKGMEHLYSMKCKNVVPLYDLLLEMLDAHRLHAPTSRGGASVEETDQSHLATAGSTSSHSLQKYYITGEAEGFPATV

C[C@]12CC[C@@H]3c4ccc(O)cc4CC[C@H]3[C@@H]1CC=C2CO [Compound 2, 3-Hydroxvestra-1,3,5(10),16-tetraene-17-methanol]
ERα agonist activity (qualitative) [1]: agonist activity | IC50 [2]: 6.8 ± 0.2 nM | ERβ antagonist activity (qualitative) [3]: not ERβ antagonists

OC[C@H]1C=CCC(c2ccc(O)cc2)C=C1 (some centres unmarked) [RKP-35c]
IC50 [4]: 378 ± 97 nM

CCCOC(=O)C1CC[C@H]2[C@@H]3CCc4cc(O)ccc4[C@H]3CC[C@]12C (some centres unmarked) [Compound 4, n-Propyl 3-hydroxyestra-1,3,5(10)-triene-17-carboxylate]
Kd [5, 7]: 320 ± 40 nM | IC50 [5]: 160 to 320 nM | IC50 [1]: 92 ± 1 nM | IC50 [2]: 9.8 ± 2 nM

OCC=C1CCC(c2ccc(O)cc2)CC1 (centres unmarked) [RKP-228]
IC50 [4]: 521 ± 87 nM

O/N=C1/CCCC(c2ccc(O)cc2)CC1 (centres unmarked) [ISP-166]
EC50 [1, 8]: 350000 ± 250000 nM | EC50 ([1]; read-out: ERα Agonist): > 10000 nM | EC50 ([2]; read-out: ERβ Agonist): 731 ± 85 nM | IC50 [3]: > 10000 nM | IC50 [6]: > 10000 nM

OCC1CCC(c2ccc(O)cc2)CC1 (centres unmarked) [ISP-171]
EC50 [1, 8]: 700000 ± 80000 nM | EC50 ([1]; read-out: ERα Agonist): > 10000 nM | IC50 [6]: > 10000 nM

CC[C@H](C)C1=CC[C@H]2[C@@H]3CCc4cc(O)ccc4[C@H]3CC[C@]12C [Compound 7, (20S) 3-Hydroxy-19,24-dinorchola-1,3,5(10),16-tetraene]
affinity for ERα (qualitative) [5]: significant affinity | Kd [5, 7]: 160 ± 10 nM | IC50 [5]: 160 to 320 nM | IC50 [2]: 88 ± 9 nM | ERβ antagonist activity (qualitative) [3]: ERβ antagonist activity | IC50 [3, 9]: 70 ± 15 nM

OCC1CCC[C@@H](c2ccc(O)cc2)CC1 (some centres unmarked) [ISP-163]
EC50 [1, 8]: 10500 ± 200 nM | EC50 ([1]; read-out: ERα Agonist): > 10000 nM | EC50 ([2]; read-out: ERβ Agonist): 30 nM and 33 nM | IC50 [3]: > 100000 nM | IC50 [6]: > 10000 nM | IC50 [4]: 23.5 ± 8 nM

CCC1CCC(c2ccc(O)cc2)CC1 (centres unmarked) [RKP-231 IF]
EC50 [1, 8]: 25000 ± 1300 nM | EC50 ([1]; read-out: ERα Agonist): > 10000 nM | EC50 [2, 10]: 89 nM | EC50 ([2]; read-out: ERβ Agonist): 93 ± 7 nM | IC50 ([3]; read-out: ERβ Antagonist (+E2), +E2): > 10000 nM | IC50 ([6]; read-out: ERα Antagonist (+E2), +E2): > 10000 nM | IC50 [4]: 15.2 ± 1.5 nM

CC1C[C@H](C)C2(CC[C@H]3[C@@H]4CCc5cc(O)ccc5[C@H]4CC[C@@]32C)O1 (some centres unmarked) [Compound 13, 17,23-Epoxy-3-hydroxy-19-norchola-1,3,5(10)-triene]
affinity for ERα (qualitative) [5]: significant affinity | Kd [5, 7]: 160 ± 10 nM | ERα agonist activity (qualitative) [1]: agonist activity | IC50 [1]: 484 ± 1 nM | IC50 [2]: 111 ± 26 nM | ERβ antagonist activity (qualitative) [3]: not ERβ antagonists

OC[C@H]1CCC[C@@H](c2ccc(O)cc2)CC1 (relative stereo) [Compound 18, cis-1-Hydroxymethyl-4-(4′-hydroxyphenyl)-cycloheptane]
affinity for ERα (qualitative) [5]: significant affinity | ERβ antagonist activity (qualitative) [3]: ERβ antagonist activity

OCCC1CCCC(c2ccc(O)cc2)CC1 (centres unmarked) [ISP-248]
EC50 [1, 8]: 45000 ± 17000 nM | EC50 ([1]; read-out: ERα Agonist): > 10000 nM | EC50 [2, 10]: 104 nM | EC50 ([2]; read-out: ERβ Agonist): 142 ± 17 nM | IC50 [3]: > 10000 nM | IC50 [6]: > 10000 nM | IC50 [4]: 36.8 ± 9.2 nM

OC[C@H]1CCC[C@@H](c2ccc(O)cc2)CC1 (racemic) [Compound 18, cis-1-Hydroxymethyl-4-(4′-hydroxyphenyl)-cycloheptane]
Kd ([5]; accurate Kd could not be obtained, estimated): > 1000 nM | IC50 [2]: 5.4 ± 0.3 nM | IC50 ([3]; read-out: ERβ antagonist IC50): 137 ± 100 nM

C[C@@H](CCO)C1=CC[C@H]2[C@@H]3CCc4cc(O)ccc4[C@H]3CC[C@]12C [Compound 11, (20S) 3-Hydroxy-19,24-Dinorchola-1,3,5(10),16-tetraen-23-ol]
affinity for ERα (qualitative) [5]: significant affinity | Kd [5, 7]: 320 ± 40 nM | IC50 [2]: 108 ± 67 nM | ERβ antagonist activity (qualitative) [3]: ERβ antagonist activity | IC50 [3, 9]: 275 ± 40 nM
